Experimental data published in article PMC8213057, “Targeting ALK2: An Open Science Approach to Developing Therapeutics for the Treatment of Diffuse Intrinsic Pontine Glioma” (Journal of Medicinal Chemistry, 2020).

Assays:
CAMKK1 = CAMKK1 (Homo sapiens, UniProt Q8N5S9); assay: biochemical; conditions: read-out: % enzyme activity, 1 μM; Run 1, Run 2
HGK/MAP4K4 = biological target: T1, HGK/MAP4K4 (Homo sapiens, UniProt O95819); assay: 375-member kinase panel; type: biochemical; conditions: Run 1, Run 2; for % enzyme activity: 1 μM; for remaining activity at 1 µM: read-out: % enzyme activity, 1 μM
T1 construct: purchased Reaction Biology Corporation
T1 sequence (O95819 whole entry): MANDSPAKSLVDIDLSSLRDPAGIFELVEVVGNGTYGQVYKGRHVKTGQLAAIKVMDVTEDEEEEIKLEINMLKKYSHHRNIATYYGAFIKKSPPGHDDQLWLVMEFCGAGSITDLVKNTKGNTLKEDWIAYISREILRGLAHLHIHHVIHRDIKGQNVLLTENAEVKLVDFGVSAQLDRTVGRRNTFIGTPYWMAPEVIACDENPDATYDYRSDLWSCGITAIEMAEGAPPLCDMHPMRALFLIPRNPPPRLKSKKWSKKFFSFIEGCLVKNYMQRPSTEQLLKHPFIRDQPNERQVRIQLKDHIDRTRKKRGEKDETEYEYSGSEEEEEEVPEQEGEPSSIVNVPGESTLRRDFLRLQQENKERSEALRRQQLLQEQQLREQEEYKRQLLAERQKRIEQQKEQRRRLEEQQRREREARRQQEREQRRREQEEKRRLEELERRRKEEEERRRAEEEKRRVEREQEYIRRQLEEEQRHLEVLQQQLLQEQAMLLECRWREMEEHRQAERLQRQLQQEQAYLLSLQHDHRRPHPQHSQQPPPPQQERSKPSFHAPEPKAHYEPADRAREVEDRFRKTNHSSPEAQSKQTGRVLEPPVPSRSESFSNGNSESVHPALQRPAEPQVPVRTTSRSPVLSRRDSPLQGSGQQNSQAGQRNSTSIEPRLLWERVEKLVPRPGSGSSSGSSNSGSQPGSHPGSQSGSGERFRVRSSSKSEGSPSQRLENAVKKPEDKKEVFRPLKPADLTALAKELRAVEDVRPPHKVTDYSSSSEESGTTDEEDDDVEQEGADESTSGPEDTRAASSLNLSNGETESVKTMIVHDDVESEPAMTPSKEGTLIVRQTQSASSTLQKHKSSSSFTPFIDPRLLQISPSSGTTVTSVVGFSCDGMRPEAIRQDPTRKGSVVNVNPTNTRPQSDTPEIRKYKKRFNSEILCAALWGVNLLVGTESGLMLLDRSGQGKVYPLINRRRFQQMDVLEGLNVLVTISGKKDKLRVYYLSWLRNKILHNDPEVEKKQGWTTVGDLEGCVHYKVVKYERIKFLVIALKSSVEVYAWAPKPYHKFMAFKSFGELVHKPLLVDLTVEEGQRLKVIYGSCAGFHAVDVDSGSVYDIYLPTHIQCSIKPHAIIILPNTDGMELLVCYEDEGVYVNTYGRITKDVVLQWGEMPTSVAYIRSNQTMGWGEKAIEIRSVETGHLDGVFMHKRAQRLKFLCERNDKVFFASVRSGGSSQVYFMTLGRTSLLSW

CDK3/cyclin E2 = CDK3/cyclin E2 (Homo sapiens, UniProt Q00526); assay: biochemical; conditions: read-out: % enzyme activity, 1 μM; Run 1, Run 2
Chain of CDK3/cyclin E2 (Q00526 whole entry): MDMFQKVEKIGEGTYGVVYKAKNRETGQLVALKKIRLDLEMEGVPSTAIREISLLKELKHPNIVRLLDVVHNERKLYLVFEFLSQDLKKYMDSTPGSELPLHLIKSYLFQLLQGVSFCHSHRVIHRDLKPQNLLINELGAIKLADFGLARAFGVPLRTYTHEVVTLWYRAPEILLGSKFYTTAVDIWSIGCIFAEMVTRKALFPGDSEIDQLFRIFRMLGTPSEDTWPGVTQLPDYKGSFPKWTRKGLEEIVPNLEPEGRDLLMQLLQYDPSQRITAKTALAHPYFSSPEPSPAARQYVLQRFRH
Chain of CDK3/cyclin E2 (O96020 whole entry partner): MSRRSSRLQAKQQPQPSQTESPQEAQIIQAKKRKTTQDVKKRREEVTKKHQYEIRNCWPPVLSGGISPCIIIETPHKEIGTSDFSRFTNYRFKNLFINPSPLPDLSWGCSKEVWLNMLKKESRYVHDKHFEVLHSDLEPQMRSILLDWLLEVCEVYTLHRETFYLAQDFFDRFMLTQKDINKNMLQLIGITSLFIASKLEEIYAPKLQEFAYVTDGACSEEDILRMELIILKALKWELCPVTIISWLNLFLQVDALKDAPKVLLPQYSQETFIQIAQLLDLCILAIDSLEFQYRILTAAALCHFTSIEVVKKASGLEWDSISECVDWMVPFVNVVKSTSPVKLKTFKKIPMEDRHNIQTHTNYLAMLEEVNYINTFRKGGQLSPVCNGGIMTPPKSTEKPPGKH

TEC = biological target: T2, TEC (Homo sapiens, UniProt P42680); assay: biochemical; conditions: read-out: % enzyme activity, 1 μM; Run 1, Run 2
T2 sequence (P42680 1-631): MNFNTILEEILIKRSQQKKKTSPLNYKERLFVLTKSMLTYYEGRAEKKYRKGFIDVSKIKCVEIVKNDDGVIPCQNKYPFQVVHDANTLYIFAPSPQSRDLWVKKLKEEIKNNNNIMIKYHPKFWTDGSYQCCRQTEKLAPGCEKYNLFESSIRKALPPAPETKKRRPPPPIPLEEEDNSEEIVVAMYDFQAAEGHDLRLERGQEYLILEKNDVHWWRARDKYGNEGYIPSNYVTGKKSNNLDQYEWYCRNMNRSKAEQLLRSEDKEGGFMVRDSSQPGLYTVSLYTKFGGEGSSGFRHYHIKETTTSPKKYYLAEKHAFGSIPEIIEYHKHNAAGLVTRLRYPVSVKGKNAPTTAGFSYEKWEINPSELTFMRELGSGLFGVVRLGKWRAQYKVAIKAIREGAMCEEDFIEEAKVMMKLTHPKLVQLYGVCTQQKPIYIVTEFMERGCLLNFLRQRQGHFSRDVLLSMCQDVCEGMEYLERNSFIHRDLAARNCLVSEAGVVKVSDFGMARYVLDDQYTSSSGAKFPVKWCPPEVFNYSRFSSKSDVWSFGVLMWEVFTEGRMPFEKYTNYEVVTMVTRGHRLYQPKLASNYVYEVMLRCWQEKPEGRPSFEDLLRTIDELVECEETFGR

RIPK5 = biological target: T3, RIPK5 (Homo sapiens, UniProt Q6XUX3); conditions: 1 μM; Run 1, Run 2
T3 sequence (Q6XUX3 1-929): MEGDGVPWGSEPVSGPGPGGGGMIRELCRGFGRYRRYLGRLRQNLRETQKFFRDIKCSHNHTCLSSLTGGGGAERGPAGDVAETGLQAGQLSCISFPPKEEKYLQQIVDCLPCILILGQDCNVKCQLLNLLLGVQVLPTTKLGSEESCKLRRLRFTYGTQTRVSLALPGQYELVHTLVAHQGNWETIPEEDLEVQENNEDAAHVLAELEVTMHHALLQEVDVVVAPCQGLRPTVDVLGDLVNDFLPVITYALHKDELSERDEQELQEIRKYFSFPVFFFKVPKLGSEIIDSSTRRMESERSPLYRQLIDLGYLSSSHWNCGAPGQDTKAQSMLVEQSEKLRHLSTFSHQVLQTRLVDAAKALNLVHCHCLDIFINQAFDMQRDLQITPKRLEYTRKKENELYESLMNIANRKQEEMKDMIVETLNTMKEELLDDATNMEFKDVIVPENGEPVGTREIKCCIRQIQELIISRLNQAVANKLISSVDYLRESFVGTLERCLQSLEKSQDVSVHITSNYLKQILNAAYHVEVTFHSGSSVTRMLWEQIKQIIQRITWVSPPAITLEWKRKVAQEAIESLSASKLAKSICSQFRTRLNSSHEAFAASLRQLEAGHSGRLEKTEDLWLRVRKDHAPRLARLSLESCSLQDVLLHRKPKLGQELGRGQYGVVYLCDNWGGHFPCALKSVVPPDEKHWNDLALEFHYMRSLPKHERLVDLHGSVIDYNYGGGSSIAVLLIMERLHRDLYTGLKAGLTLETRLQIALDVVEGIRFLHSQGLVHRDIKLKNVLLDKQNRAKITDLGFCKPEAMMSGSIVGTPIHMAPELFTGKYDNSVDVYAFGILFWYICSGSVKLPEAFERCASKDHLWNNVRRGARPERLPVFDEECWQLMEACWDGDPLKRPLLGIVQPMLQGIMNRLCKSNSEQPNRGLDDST

AKT2 = AKT2 (Homo sapiens, UniProt P31751); conditions: 1 μM; Run 1, Run 2
Chain of AKT2 (P31751 whole entry): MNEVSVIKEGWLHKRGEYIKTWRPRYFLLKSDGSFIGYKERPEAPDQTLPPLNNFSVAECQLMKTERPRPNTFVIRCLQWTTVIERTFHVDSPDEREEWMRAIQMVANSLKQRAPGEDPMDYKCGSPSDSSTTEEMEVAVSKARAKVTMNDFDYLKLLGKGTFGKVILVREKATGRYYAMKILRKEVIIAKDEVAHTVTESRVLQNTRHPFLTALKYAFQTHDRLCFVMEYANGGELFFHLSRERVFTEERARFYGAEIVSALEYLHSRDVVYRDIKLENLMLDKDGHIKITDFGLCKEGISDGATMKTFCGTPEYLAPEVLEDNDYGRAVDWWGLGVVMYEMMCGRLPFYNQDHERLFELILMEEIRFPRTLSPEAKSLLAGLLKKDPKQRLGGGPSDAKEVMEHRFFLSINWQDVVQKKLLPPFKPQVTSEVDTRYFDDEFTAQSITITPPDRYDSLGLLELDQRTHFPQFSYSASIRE

CDK2/cyclin E = CDK2/cyclin E (Homo sapiens, UniProt P24941); conditions: 1 μM; Run 1, Run 2
TYK2 = TYK2 (Homo sapiens, UniProt P29597); conditions: 1 μM; Run 1, Run 2
Chain of TYK2 (P29597 whole entry, species assumed): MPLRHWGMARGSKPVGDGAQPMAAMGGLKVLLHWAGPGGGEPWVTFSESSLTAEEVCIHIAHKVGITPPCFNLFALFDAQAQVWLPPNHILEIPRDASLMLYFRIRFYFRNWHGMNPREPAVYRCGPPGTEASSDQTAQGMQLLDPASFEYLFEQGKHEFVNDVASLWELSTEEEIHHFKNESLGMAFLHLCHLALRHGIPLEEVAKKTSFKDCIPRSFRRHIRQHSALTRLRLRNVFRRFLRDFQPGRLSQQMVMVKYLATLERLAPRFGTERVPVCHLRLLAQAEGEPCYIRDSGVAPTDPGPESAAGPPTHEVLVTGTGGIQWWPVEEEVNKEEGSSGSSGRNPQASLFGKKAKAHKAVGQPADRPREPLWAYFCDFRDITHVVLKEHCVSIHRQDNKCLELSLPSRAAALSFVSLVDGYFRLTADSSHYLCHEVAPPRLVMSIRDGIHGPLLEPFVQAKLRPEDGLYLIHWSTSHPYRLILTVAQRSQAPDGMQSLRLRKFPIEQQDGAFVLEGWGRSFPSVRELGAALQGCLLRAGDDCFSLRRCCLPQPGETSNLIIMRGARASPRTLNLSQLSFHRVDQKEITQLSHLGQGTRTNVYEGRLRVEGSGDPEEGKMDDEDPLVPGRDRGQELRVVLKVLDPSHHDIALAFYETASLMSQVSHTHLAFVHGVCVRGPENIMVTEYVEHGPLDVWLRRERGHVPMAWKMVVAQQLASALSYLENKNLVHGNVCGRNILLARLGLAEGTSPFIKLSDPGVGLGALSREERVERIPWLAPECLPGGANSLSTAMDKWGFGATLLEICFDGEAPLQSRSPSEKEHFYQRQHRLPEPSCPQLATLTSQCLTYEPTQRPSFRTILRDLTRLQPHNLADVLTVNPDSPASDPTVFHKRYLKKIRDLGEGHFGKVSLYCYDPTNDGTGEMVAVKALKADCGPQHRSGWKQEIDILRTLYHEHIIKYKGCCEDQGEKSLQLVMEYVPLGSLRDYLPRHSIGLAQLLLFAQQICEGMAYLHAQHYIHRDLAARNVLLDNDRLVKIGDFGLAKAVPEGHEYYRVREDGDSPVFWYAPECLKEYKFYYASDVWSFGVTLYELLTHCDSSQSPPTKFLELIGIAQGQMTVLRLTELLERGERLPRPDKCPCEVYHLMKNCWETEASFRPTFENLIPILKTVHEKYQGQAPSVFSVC

ARAF = biological target: T4, ARAF (Homo sapiens, UniProt P10398); assay: biochemical; conditions: read-out: % enzyme activity, 1 μM; Run 1, Run 2
T4 sequence (P10398 1-606): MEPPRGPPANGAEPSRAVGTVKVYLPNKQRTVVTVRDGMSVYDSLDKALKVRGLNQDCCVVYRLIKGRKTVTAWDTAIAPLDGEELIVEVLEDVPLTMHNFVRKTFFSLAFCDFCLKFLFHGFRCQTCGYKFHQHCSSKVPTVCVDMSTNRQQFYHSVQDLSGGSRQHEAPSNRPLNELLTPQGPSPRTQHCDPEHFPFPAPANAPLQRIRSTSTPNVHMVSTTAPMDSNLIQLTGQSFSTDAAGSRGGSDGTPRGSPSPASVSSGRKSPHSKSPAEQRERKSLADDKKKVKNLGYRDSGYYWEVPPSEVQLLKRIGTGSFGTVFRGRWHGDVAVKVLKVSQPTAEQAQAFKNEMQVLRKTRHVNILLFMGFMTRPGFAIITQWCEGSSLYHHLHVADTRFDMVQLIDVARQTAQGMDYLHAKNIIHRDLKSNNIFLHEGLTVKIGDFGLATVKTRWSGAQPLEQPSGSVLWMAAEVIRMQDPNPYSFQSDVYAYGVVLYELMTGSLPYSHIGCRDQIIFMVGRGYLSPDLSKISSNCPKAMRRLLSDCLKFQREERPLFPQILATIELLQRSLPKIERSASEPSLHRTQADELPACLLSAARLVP

RIPK2 = RIPK2 (Homo sapiens, UniProt O43353); conditions: 1 μM; Run 1, Run 2
Chain of RIPK2 (O43353 whole entry): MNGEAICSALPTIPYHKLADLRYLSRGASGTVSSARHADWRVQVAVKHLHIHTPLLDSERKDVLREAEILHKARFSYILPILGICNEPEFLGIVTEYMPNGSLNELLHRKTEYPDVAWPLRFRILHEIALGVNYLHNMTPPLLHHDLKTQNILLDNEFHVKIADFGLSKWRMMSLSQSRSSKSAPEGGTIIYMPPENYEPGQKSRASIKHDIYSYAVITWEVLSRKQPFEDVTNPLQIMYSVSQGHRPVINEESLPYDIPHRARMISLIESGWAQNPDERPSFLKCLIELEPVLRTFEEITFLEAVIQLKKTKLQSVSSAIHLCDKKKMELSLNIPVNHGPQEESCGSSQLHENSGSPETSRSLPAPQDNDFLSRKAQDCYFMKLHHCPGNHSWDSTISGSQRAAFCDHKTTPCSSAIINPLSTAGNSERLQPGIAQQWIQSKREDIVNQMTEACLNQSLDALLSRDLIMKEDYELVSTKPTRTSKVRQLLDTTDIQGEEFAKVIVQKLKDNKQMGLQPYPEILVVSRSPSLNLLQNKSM

Chain of CAMKK1 (Q8N5S9 whole entry): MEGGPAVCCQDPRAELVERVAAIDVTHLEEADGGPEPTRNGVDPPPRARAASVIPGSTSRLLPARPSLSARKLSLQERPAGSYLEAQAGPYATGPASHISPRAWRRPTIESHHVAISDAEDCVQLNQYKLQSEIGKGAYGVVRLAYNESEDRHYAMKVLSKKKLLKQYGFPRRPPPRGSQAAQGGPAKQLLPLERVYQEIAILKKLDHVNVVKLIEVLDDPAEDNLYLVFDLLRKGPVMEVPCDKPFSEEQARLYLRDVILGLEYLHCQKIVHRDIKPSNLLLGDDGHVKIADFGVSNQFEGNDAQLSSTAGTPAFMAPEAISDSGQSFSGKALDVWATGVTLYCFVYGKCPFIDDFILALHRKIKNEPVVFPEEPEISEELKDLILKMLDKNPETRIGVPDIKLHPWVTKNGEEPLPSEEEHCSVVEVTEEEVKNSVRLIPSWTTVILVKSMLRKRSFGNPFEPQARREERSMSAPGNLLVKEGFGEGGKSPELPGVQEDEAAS

| SMILES | remaining activity at 1 µM (CAMKK1) | % enzyme activity (HGK/MAP4K4) | remaining activity at 1 µM (HGK/MAP4K4) | remaining activity at 1 µM (CDK3/cyclin E2) | remaining activity at 1 µM (TEC) | % enzyme activity (RIPK5) | % enzyme activity (AKT2) | % enzyme activity (CDK2/cyclin E) | % enzyme activity (TYK2) | remaining activity at 1 µM (ARAF) | % enzyme activity (RIPK2) |
| --- | --- | --- | --- | --- | --- | --- | --- | --- | --- | --- | --- |
| COc1cc(-c2cncc(-c3ccc(N4C[C@@H](C)N(C)[C@@H](C)C4)cc3)c2C)cc(F)c1C(N)=O [Compound 26c, 2-Fluoro-6-methoxy-4-(4-methyl-5-(4-((3R,5S)-3,4,5-trimethylpiperazin-1-yl)phenyl)pyridin-3-yl)benzamide] | 94% | 28.35% | 30.6% | 86.2% | 106% | 86.47% | 92.08% | 102.10% | 99.47% | 48.1% | 89.10% |
| COc1cc(-c2cncc(-c3ccc(N4CCN(C)CC4)cc3)c2C)cc(F)c1C(N)=O [Compound 26a, 2-Fluoro-6-methoxy-4-(4-methyl-5-(4-(4-methylpiperazin-1-yl)phenyl)pyridin-3-yl)benzamide] | 94.7% | 20.97% | 22% | 89.5% | 108% | 82.21% | 91.70% | 104.52% | 91.37% | 29.3% | 66.31% |
